Results on eleven compounds are retold here after PMC10925992 (Heliyon, 2024).

One may read the Kd as a measure of binding affinity in units of concentration. The IC50 is the concentration that gives 50% inhibition.

In assay [1] the target is catalytic domain of USP7 (USP7-CD) (Homo sapiens, UniProt Q93009). Kind of assay: STD-NMR titration for dissociation constant. Format: binding.
The target in the next assay is USP7-CD (Homo sapiens, UniProt Q93009). Kind of assay: Thermal shift assay. The settings on record: decrease of Tm of USP7-CD, USP7 10 μM, ligand 1 mM.
Assay [2] deals with USP7, MDM2 and c-Myc mRNA in HCT-116 cells. The assay is described as follows: Quantitative gene expression analysis. It is filed as cell-based, human. The settings on record: HCT116, compound at IC50 concentration, 48 h, versus untreated cells.
Assay [3] has as its system p53 mRNA in HCT-116 cells. Kind of assay: Quantitative gene expression analysis. The note with it: HCT116, compound at IC50 concentration, 48 h, versus untreated cells. Format: cell-based, human.
A further assay concerns HCT116 cells. Kind of assay: MTT anti-proliferation assay. The note with it: for IC50: Homo sapiens, HCT-116, 48 h; for inhibition of proliferation of cancerous cells: HCT116, MTT, 48 h. It is filed as cell-based, human. (In general: Formazan colour is commonly taken as a measure of viable cells.)
A further assay has as its system USP7. The note with it: read-out: IC50 of USP7 inhibition; no reference given; cited from earlier work.

Each structure is given as a SMILES string. Counter-ions that a name gives are not always drawn.

Chain of catalytic domain of USP7 (USP7-CD) (Q93009 208-560): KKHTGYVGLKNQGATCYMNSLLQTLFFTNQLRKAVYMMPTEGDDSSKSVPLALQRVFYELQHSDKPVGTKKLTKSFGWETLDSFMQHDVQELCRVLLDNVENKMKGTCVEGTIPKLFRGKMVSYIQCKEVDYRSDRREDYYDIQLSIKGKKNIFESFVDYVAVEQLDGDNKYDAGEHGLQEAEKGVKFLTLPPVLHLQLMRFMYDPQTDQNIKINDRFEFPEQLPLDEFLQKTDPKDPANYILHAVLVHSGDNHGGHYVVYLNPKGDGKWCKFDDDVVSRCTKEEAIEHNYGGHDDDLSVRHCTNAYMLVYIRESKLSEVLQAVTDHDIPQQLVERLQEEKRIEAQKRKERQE
Chain of USP7-CD (Q93009 208-560): as above

In assay [1], `Nc1c(CC(=O)O)cccc1C(=O)c1ccc(Br)cc1` [Compound 1, Bromfenac Sodium] showed a Kd of 780 ± 530 µM.

`O=C(O)Cc1ccccc1Nc1c(Cl)cccc1Cl` [Compound 2, Diclofenac Sodium] gave a Kd in assay [1] of 760 ± 560 µM. In addition, the “Thermal Shift (Δtm)” value at USP7-CD worked out at 2.40 °C.

Consider `CC(C(=O)O)c1cccc(C(=O)c2ccccc2)c1` (stereo not shown) [Compound 3, Ketoprofen], for which binding in assay [1] was characterised by a dissociation constant (Kd) of 620 ± 560 µM.

Take `CC(CCc1ccccc1)NCC(O)c1ccc(O)c(C(N)=O)c1` (stereo not shown) [Compound 4, Labetalol Hydrochloride]: the dissociation constant (Kd) in assay [1] stood at 910 ± 700 µM. Moreover, the “Thermal Shift (Δtm)” value at USP7-CD was 3.95 °C.

As for `CCN(CC)CC#CCOC(=O)C(O)(c1ccccc1)C1CCCCC1` (stereo not shown) [Compound 6, Oxybutynin HCl], the “mRNA expression of proto-oncogenes (USP7, MDM2, c-Myc)” value (shortened to “mRNA expression of proto-oncogenes”) in assay [2] is recorded as “significantly decreased”. Moreover, the affinity in assay [1], expressed as Kd, was 660 ± 460 µM.

For the compound `CN1CCC(=C2c3ccccc3CC(=O)c3sccc32)CC1` [Compound 7, Ketotifen], the “mRNA expression of tumor suppressor gene (p53)” value in assay [3] is on record as “non-significantly”. In assay [2], the “mRNA expression of proto-oncogenes” value is “significantly decreased”. Besides, in the assay on HCT116 cells, 89 ± 1.55 µM corresponded to half-maximal inhibition (IC50). For the same compound, the Kd in assay [1] came to 1100 ± 880 µM.

For the compound `Clc1ccccc1CN1CCc2sccc2C1` [Compound 8, Ticlopidine Hydrochloride], the “inhibition of proliferation of cancerous cells” value in the assay on HCT116 cells was “inactive”. The Kd in assay [1] came out at 1490 ± 1410 µM.

Turning to `Nc1nnc(-c2cccc(Cl)c2Cl)c(N)n1` [Compound 9, Lamotrigine], the “inhibition of proliferation of cancerous cells” value with HCT116 cells was “inactive”. In assay [1], the Kd came to 1000 ± 560 µM.

For `COc1ccnc(C[S+]([O-])c2nc3ccc(OC(F)F)cc3[nH]2)c1OC` (stereo not shown) [Compound 10, Pantoprazole Sodium], the “mRNA expression of proto-oncogenes” value in assay [2] was “significantly decreased”. The compound further came in with an IC50 with HCT116 cells of 222 ± 0.29 µM. Further, the affinity in assay [1], expressed as Kd, was 870 ± 280 µM.

With `CN(C)CCC[C@@]1(c2ccc(F)cc2)OCc2cc(C#N)ccc21` [Compound 11, Escitalopram], the “mRNA expression of tumor suppressor gene (p53)” value in assay [3] is given as “non-significantly”. The “mRNA expression of proto-oncogenes” value in assay [2] is “significantly decreased”. 227.6 ± 0.71 µM corresponded to half-maximal inhibition in the assay on HCT116 cells (IC50). This compound showed a Kd in assay [1] of 1220 ± 1120 µM.

On to `N#Cc1nc2c(nc1C#N)-c1ccc(Cl)cc1C2=O` [HBX 41108], for which the IC50 in the assay on USP7 was 0.424 µM. In addition, the “Thermal Shift (Δtm)” value at USP7-CD (listed as 12) turned out to be 6.20 °C.
